# Source: patent US7402696B2, “Benzene compounds” (Ajinomoto Co., Inc., priority 2004, dated 2008)
# Biological target: T1, ACC (acetyl CoA carboxylase) purified from liver of male SD rat (Rattus norvegicus, UniProt P11497)
# T1 construct: applied to a monomeric avidin sepharose column, and washed with buffer B. The ACC was eluted with buffer B containing 2 mM d-biotin; from tissue; host or cells: liver of male SD rat
# Experiment: Measurement of ACC inhibition activity ([14C]-NaHCO3 incorporation)
# Type: biochemical
# Conditions: ACC inhibition activity rate at 1 μM; Table 2-III, Mode 3 acetylene/oxadiazole/thiazole compounds (numbers = x-III); read-out: ACC Inhibition (%)
# Experimental: A male SD rat was deprived of food for two days and then fed a high-sucrose diet (component) for two days. While anesthetized with ether, the descending vena cava was cut upon, the animal was bled, and the liver was rapidly recovered. In an ice-cooled buffer solution A (225 mM mannitol, 75 mM sucrose, 10 mM Tris-HCl (pH 7.5), 0.05 mM EDTA, 5 mM potassium citrate, 2.5 mM MgCl2, 10 mg/L pepstatin A, 10 mg/L leupeptin, 1 mM PMSF), the liver was homogenized with a polytone homogenizer. A quantity of buffer A nine times the weight of the liver was added, the mixture was centrifuged for 10 minutes at 1,000 g, the supernatant was recovered, and the supernatant was centrifuged for another 10 minutes at 17,000 g.
# Ammonium sulfate was added to 35 percent saturation to the obtained supernatant. The mixture was stirred for 45 minutes and then centrifuged for 10 minutes at 17,000 g. Buffer solution B (100 mM Tris-HCl (pH 7.5), 500 mM NaCl, 1 mM EDTA, 0.1 mM DTT, 10 percent glycerol, 10 mg/L pepstatin A, 10 mg/L leupeptin, 0.5 mM PMSF) was added to the obtained precipitate and dissolved. The solution was then centrifuged for 20 minutes at 40,000 g. The supernatant was dialyzed overnight against buffer C (100 mM Tris-HCl (pH 7.5), 500 mM NaCl, 1 mM EDTA, 0.1 mM DTT, 5 percent glycerol).
# The dialyzed supernatant was passed through a […], applied to a monomeric avidin sepharose column, and washed with buffer B. The ACC was eluted with buffer B containing 2 mM d-biotin.
# (2 Measurement of ACC Inhibition Activity)
# The compounds synthesized in the above-described embodiments were dissolved in DMSO and charged to glass vials. 250 μL of ACC-containing reaction solution (40 mM Tris-HCl (pH 7.5), 40 mM MgCl2, 40 mM sodium citrate, and 2 mM DTT) was added. The mixture was heated for 30 minutes at 37° C. in a thermostatic chamber and then cooled with ice. To reaction solution 1 was added 250 μL of reaction solution 2 containing [14C]—NaHCO3 (40 mM Tris-HCl (pH 7.5), 2 mM DTT, 8 mM ATP, 0.5 mM acetyl CoA) and the mixture was heated for 10 minutes at 37° C. 100 μL of 1N HCl was added to stop the reaction. Water in the reaction solution was removed with a centrifugal evaporator, a scintillator was added, the solid component was dissolved, and the 14C radioactivity was measured with a liquid scintillation counter. The ACC inhibition activity of each compound was calculated from the following equation and converted to the ACC inhibition activity rate (%) at 1 μM.
# ACC inhibition rate (%)=(1−(a−c)/(b−c))×100 a. Radioactivity when test drug added b: Radioactivity when test drug not added c: Blank* *Reaction solution 1 to which 100 μL of 1N HCl was added before mixing reaction solution 1 and reaction solution 2
row,SMILES,inhibition at 1 µM
1,O=C(O)c1ccccc1-c1nc(-c2ccc(-c3nc(-c4cc(C(F)(F)F)cc(C(F)(F)F)c4)cs3)cc2)cs1 [compound 1],62%
2,O=C(O)c1ccccc1S(=O)(=O)Nc1ccc(C#Cc2cccc(C(F)(F)F)c2)cc1 [compound 9],60%
3,O=C(O)c1ccccc1C(=O)Nc1ccc(C#Cc2cccc(C(F)(F)F)c2)cc1 [compound 10],61%

# Same assay, conditions: ACC inhibition activity rate at 1 μM; Table 3-I, Mode 1 quinoline compounds (numbers = x-I); read-out: ACC Inhibition (%)
row,SMILES,inhibition at 1 µM
1,O=C(Nc1ccccc1C(=O)O)c1ccc2nc(-c3cc(C(F)(F)F)cc(C(F)(F)F)c3)ccc2c1 [compound 3],53%
2,CCCCS(=O)(=O)NC(=O)c1ccccc1NC(=O)c1ccc2nc(-c3cc(C(F)(F)F)cc(C(F)(F)F)c3)ccc2c1 [compound 4],78%
3,CCCCCC(=O)NS(=O)(=O)c1ccccc1NC(=O)c1ccc2nc(-c3cc(C(F)(F)F)cc(C(F)(F)F)c3)ccc2c1 [compound 7],72%

# Same assay, conditions: ACC inhibition activity rate at 1 μM; Table 3-II, Mode 2 benzimidazole compounds (numbers = x-II); read-out: ACC Inhibition (%)
row,SMILES,inhibition at 1 µM
1,CCCCCC(=O)NS(=O)(=O)c1ccccc1NC(=O)c1ccc2c(c1)nc(-c1cc(C(F)(F)F)cc(C(F)(F)F)c1)n2CCC(C)C [compound 1],50%
2,CCCCCC(=O)NS(=O)(=O)c1ccccc1NC(=O)c1ccc2c(c1)nc(-c1cc(C(F)(F)F)cc(C(F)(F)F)c1)n2-c1ccc(C(F)(F)F)cc1 [compound 2],92%
3,CCCCCC(=O)NS(=O)(=O)c1ccccc1NC(=O)c1ccc2nc(-c3cccc(C(F)(F)F)c3)n(-c3ccccc3)c2c1 [compound 4],54%
4,CC(C)(C)c1ccc(C(=O)NS(=O)(=O)c2ccccc2NC(=O)c2ccc3nc(-c4cccc(C(F)(F)F)c4)n(-c4ccccc4)c3c2)cc1 [compound 5],89%
5,O=C(O)c1cccc(-c2noc(-c3ccc4c(c3)nc(-c3ccccc3)n4-c3ccc(C(F)(F)F)cc3)n2)c1 [compound 8],57%

# Same assay, conditions: ACC inhibition activity rate at 1 μM; Table 4-A, further compounds of Modes 2 and 3; read-out: ACC Inhibition (%)
row,SMILES,inhibition at 1 µM
1,CC(C)CCn1c(-c2ccccc2)nc2cc(-c3nc(-c4cccc(C(=O)NS(=O)(=O)c5ccccc5)c4)no3)ccc21 [Compound 9-II],72%
2,Nc1ccc(S(=O)(=O)NC(=O)c2cccc(-c3nc(-c4ccc(-c5csc(-c6ccccc6)n5)cc4)no3)c2)cc1 [Compound 132-III],96%
3,O=C(NS(=O)(=O)c1ccc(-c2nc(-c3ccc(-c4csc(-c5ccccc5)n4)cc3)no2)cc1)c1ccccc1 [Compound 135-III],98%
4,O=C(NS(=O)(=O)c1cccc(-c2nc(-c3ccc(-c4csc(-c5ccccc5)n4)cc3)no2)c1)c1ccccc1 [Compound 136-III],94%
5,Nc1ccccc1S(=O)(=O)NC(=O)c1cccc(-c2nc(-c3ccc(-c4csc(-c5ccccc5)n4)cc3)no2)c1 [Compound 137-III],96%
6,O=C(NS(=O)(=O)c1cccc(-c2nc(-c3ccc(-c4csc(-c5ccccc5)n4)cc3)no2)c1)c1ccc(-n2ccnc2)cc1 [Compound 138-III],100%
7,Cn1cnc(S(=O)(=O)NC(=O)c2cccc(-c3nc(-c4ccc(-c5csc(-c6ccccc6)n5)cc4)no3)c2)c1 [Compound 139-III],96%
8,COC(=O)c1ccc(S(=O)(=O)NC(=O)c2cccc(-c3nc(-c4ccc(-c5csc(-c6ccccc6)n5)cc4)no3)c2)cc1 [Compound 140-III],92%
9,Cc1ccccc1S(=O)(=O)NC(=O)c1cccc(-c2nc(-c3ccc(-c4csc(-c5ccccc5)n4)cc3)no2)c1 [Compound 141-III],100%
10,O=C(/C=C/c1ccccc1)NS(=O)(=O)c1cccc(-c2nc(-c3ccc(-c4csc(-c5ccccc5)n4)cc3)no2)c1 [Compound 142-III],100%
11,O=C(NS(=O)(=O)c1cccc(-c2nc(-c3ccc(-c4csc(-c5ccccc5)n4)cc3)no2)c1)c1cccs1 [Compound 143-III],83%
12,O=C(O)c1ccc(S(=O)(=O)NC(=O)c2cccc(-c3nc(-c4ccc(-c5csc(-c6ccccc6)n5)cc4)no3)c2)cc1 [Compound 144-III],97%
13,O=C(NS(=O)(=O)c1cccc(-c2nc(-c3ccc(-c4csc(-c5ccccc5)n4)cc3)no2)c1)c1cccnc1 [Compound 145-III],84%
14,COc1cccc(OC)c1C(=O)NS(=O)(=O)c1cccc(-c2nc(-c3ccc(-c4csc(-c5ccccc5)n4)cc3)no2)c1 [Compound 146-III],79%
15,CCN(CC)c1ccc(-c2csc(-c3ccc(-c4csc(-c5cccc(S(=O)(=O)NC(=O)c6ccncc6)c5)n4)cc3)n2)cc1 [Compound 147-III],65%

# Same assay, conditions: ACC inhibition activity rate at 1 μM; Table 4-IV, Mode 4 benzenediamine compounds (numbers = x-IV); read-out: ACC Inhibition (%)
row,SMILES,inhibition at 1 µM
1,COC(=O)c1cccc(S(=O)(=O)NC(=O)c2cccc(-c3nc(-c4ccc(N(C)CCC(C)C)c(NCc5ccc(OCCO)cc5)c4)no3)c2)c1 [Compound 133-IV],99%
2,CC(C)CCN(C)c1ccc(-c2noc(-c3cccc(C(=O)NS(=O)(=O)c4cccc(C(=O)O)c4)c3)n2)cc1NCc1ccc(OCCO)cc1 [Compound 134-IV],89%
3,CC(C)CCN(C)c1ccc(-c2noc(-c3cccc(C(=O)NS(=O)(=O)c4cn(C)cn4)c3)n2)cc1NCc1ccc(OCCO)cc1 [Compound 137-IV],79%
4,CC(C)CCN(C)c1ccc(C(=O)NC(CC(=O)NS(=O)(=O)c2ccc(C(=O)O)cc2)C2CCCCC2)cc1NCc1ccccc1 (centres unmarked) [Compound 138-IV],63%
5,CC(C)CCN(C)c1ccc(-c2noc(-c3cccc(C(=O)NS(=O)(=O)c4cccc(C(=O)O)c4)c3)n2)cc1N(C)Cc1ccc(OCCO)cc1 [Compound 139-IV],100%
6,CC(C)CCN(C)c1ccc(-c2noc(-c3cccc(C(=O)NS(=O)(=O)c4cn(C)cn4)c3)n2)cc1N(C)Cc1ccc(OCCO)cc1 [Compound 142-IV],93%
7,CC(C)CCN(C)c1ccc(C(=O)N[C@H]2CCCC[C@H]2C(=O)NS(=O)(=O)c2ccccc2)cc1NCc1ccccc1 [Compound 144-IV],94%
8,Cc1ccccc1S(=O)(=O)NC(=O)[C@@H]1CCCC[C@H]1NC(=O)c1ccc(N(C)CCC(C)C)c(NCc2ccccc2)c1 [Compound 145-IV],57%
9,Cc1ccccc1S(=O)(=O)NC(=O)[C@@H]1CCCC[C@@H]1NC(=O)c1ccc(N(C)CCC(C)C)c(NCc2ccccc2)c1 [Compound 146-IV],72%
10,CC(C)CCN(C)c1ccc(C(=O)NC(CC(=O)NS(=O)(=O)c2cn(C)cn2)C2CCCCC2)cc1NCc1ccccc1 (centres unmarked) [Compound 147-IV],68%
11,CC(C)CCN(C)c1ccc(C(=O)NC(CC(=O)NS(=O)(=O)c2cn(C)cn2)C2CCCCC2)cc1N(C)Cc1ccccc1 (centres unmarked) [Compound 148-IV],63%
12,Cc1ccccc1S(=O)(=O)NC(=O)CC(NC(=O)c1ccc(N(C)CCC(C)C)c(N(C)CCc2ccccc2)c1)C1CCCCC1 (centres unmarked) [Compound 153-IV],86%
13,CN(c1ccc(C(=O)NC(CC(=O)NS(=O)(=O)c2ccccc2)C2CCCCC2)cc1NCCc1ccccc1)C1CC1 (centres unmarked) [Compound 157-IV],69%
14,CN(c1ccc(C(=O)NC(CC(=O)NS(=O)(=O)c2ccccc2)C2CCCCC2)cc1NCCOCc1ccccc1)C1CC1 (centres unmarked) [Compound 158-IV],65%
15,CC(C)CCN(C)c1ccc(C(=O)NC(CC(=O)NS(=O)(=O)c2cn(C)cn2)C2CCCCC2)cc1NCC1CCCCC1 (centres unmarked) [Compound 161-IV],71%
16,CC(C)CCN(C)c1ccc(C(=O)NC(CC(=O)NS(=O)(=O)c2cn(C)cn2)C2CCCCC2)cc1NCCc1ccccc1 (centres unmarked) [Compound 162-IV],85%
17,CCCCCC(=O)NS(=O)(=O)c1ccccc1NC(=O)c1ccc(Nc2c(F)c(F)c(C(F)(F)F)c(F)c2F)c([N+](=O)[O-])c1 [compound 8],50%

# Same assay, conditions: read-out: ACC Inhibition (%)
row,SMILES,inhibition at 1 µM
1,CCOP(=O)(/C=C/c1ccc(CNc2cc(-c3noc(-c4cccc(C(=O)NS(=O)(=O)c5ccccc5C)c4)n3)ccc2N(C)CCC(C)C)cc1)OCC [Compound 140-IV],100%
